Results as given in patent US7189720B2 (H. Lundbeck A/S, priority 1999, dated 2007).
Read-outs that look alike come from different tables or passages of the source.

Biological target: T1, human Y5 receptor (Homo sapiens, UniProt Q15761)
T1 construct: expressed in transfected cells; host or cells: mouse fibroblast LM(tk-) cells, e.g. L-hY5-7 (ATCC CRL-11995)
T1 sequence (Q15761 1-445): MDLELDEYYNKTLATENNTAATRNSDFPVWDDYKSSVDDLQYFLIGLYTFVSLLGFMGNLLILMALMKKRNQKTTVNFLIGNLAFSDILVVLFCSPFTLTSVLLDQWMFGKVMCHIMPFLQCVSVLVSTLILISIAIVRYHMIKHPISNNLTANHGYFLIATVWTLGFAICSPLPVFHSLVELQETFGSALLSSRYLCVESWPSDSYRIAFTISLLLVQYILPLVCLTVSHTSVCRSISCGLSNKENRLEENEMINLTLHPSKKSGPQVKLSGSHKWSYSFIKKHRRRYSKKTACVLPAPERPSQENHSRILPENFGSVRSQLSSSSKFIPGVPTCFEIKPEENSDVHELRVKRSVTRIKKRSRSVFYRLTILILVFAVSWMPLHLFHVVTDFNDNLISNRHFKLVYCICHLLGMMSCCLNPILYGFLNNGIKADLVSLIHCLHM
Test: Radioligand binding to membranes, cloned human Y5 receptor
Conditions: read-out: Ki (nM) hNPY-5
Description: Binding of the compounds of the present invention to human Y1, Y2, Y4, and Y5 receptors was evaluated using stably transfected 293 or LM(tk-) cells as described above.
Membranes were harvested from COS-7 cells 48 hours after transient transfection. Adherent cells were washed twice in ice-cold phosphate buffered saline (138 mM NaCl, 8.1 mM Na2HPO4, 2.5 mM KCl, 1.2 mM KH2PO4, 0.9 mM CaCl2, 0.5 mM MgCl2, pH 7.4) and lysed by sonication in ice-cold sonication buffer (20 mM Tris-HCl, 5 mM EDTA, pH 7.7). Large particles and debris were cleared by low speed centrifugation (200×g, 5 min, 4° C.). Membranes were collected from the supernatant fraction by centrifugation (32,000×g, 18 min, 4° C.), washed with ice-cold hypotonic buffer, and collected again by centrifugation (32,000×g, 18 min, 4° C.). The final membrane pellet was resuspended by sonication into a small volume of ice-cold binding buffer (˜1 ml for every 5 plates: 10 mM NaCl, 20 mM HEPES, 0.22 mM KH2PO4, 1.26 mM CaCl2, 0.81 mM MgSO4, pH 7.4). Protein concentration was measured by the Bradford method (Bradford, 1976) using Bio-Rad Reagent, with bovine serum albumin as a standard. Membranes were held on ice for up to one hour and used fresh, or flash-frozen and stored in liquid nitrogen.
Membranes were prepared similarly from 293, LM(tk-), and NIH-3T3 cells.
Membrane suspensions were diluted in binding buffer supplemented with 0.1% bovine serum albumin to yield an optimal membrane protein concentration so that ^125I-PYY (or alternative radioligand such as ^125I-NPY, ^125I-NYY3-36, or ^125I-[Leu^31Pro^34]PYY) bound by membranes in the assay was less than 10% of ^125I-PYY (or alternative radioligand) delivered to the sample (100,000 dpm/sample=0.08 nM for competition binding assays). ^125I-PYY (or alternative radioligand) and peptide competitors were also diluted to desired concentrations in supplemented binding buffer. Individual samples were then prepared in 96-well polypropylene microtiter plates by mixing ^125I-PYY (25 μL) (or alternative radioligand), competing peptides or supplemented binding buffer (25 μL), and finally, membrane suspensions (200 μL). Samples were incubated in a 30° C. water bath with constant shaking for 120 min. Incubations were terminated by filtration over Whatman GF/C filters (pre-coated with 1% polyethyleneimine and air-dried before use), followed by washing with 5 mL of ice-cold binding buffer. Filter-trapped membranes were impregnated with MeltiLex solid scintillant (Wallac, Turku, Finland) and counted for ^125I in a Wallac Beta-Plate Reader. Alternatively, incubations were carried out in GF/C filter plates (pre-coated with 1% polyethyleneimine and air-dried before use), followed by vacuum filtration and three washes of 300 μL of ice-cold binding buffer. 50 μL of UltimaGold (Packard) scintillant were added and counted for ^125I, in a Wallac MicroBeta Trilux. Non-specific binding was defined by 300 nM human NPY for all receptors except the Y4 subtypes; 100 nM human PP was used for the human Y4 and 100 nM rat PP for the rat Y4.

| SMILES | Ki (Table 1) [nM] | Ki (Table 2) [nM] |
| --- | --- | --- |
| CCNc1nc(NCC2CCC(CNS(=O)(=O)c3cccc4ccccc34)CC2)nc(NC(C)C)n1 (centres unmarked) [Example 2, N1-[4-([4-(ethylamino)-6-(isopropylamino)-1,3,5-triazin-2-yl]aminomethyl)cyclohexyl]methyl-1-naphthalenesulfonamide] | 7 | – |
| C=CCNc1nc(NCC2CCC(CNS(=O)(=O)c3cccc4ccccc34)CC2)nc(NC(C)C)n1 (centres unmarked) [Example 3, N1-{[4-({[4-(Allylamino)-6-(isopropylamino)-1,3,5-triazin-2-yl]amino}methyl)cyclohexyl]methyl}-1-naphthalenesulfonamide] | 12 | – |
| CC(C)Nc1nc(NCC2CCC(CNS(=O)(=O)c3cccc4ccccc34)CC2)nc(NC(C)C)n1 (centres unmarked) [Example 4, N1-{[4-({[4,6-Di(isopropylamino)-1,3,5-triazin-2-yl]amino}methyl)cyclohexyl]methyl}-1-naphthalenesulfonamide] | 23 | – |
| CCCNc1nc(NCC2CCC(CNS(=O)(=O)c3cccc4ccccc34)CC2)nc(NC(C)C)n1 (centres unmarked) [Example 5, N1-[4-([4-(isopropylamino)-6-(propylamino)-1,3,5-triazin-2-yl]aminomethyl)cyclohexyl]methyl-1-naphthalenesulfonamide] | 18 | – |
| CCCCNc1nc(NCC2CCC(CNS(=O)(=O)c3cccc4ccccc34)CC2)nc(NC(C)C)n1 (centres unmarked) [Example 6, N1-[4-([4-(butylamino)-6-(isopropylamino)-1,3,5-triazin-2-yl]aminomethyl)cyclohexyl]methyl-1-naphthalenesulfonamide] | 22 | – |
| CC(C)Nc1nc(NCC2CCC(CNS(=O)(=O)c3cccc4ccccc34)CC2)nc(NC2CCC2)n1 (centres unmarked) [Example 7, N1-[4-([4-(cyclobutylamino)-6-(isopropylamino)-1,3,5-triazin-2-yl]aminomethyl)cyclohexyl]methyl-1-naphthalenesulfonamide] | 22 | – |
| CC(C)Nc1nc(NCC2CCC(CNS(=O)(=O)c3cccc4ccccc34)CC2)nc(NC2CC2)n1 (centres unmarked) [Example 8, N1-[4-([4-(cyclopropylamino)-6-(isopropylamino)-1,3,5-triazin-2-yl]aminomethyl)cyclohexyl]methyl-1-naphthalenesulfonamide] | 9 | – |
| CCCCCNc1nc(NCC2CCC(CNS(=O)(=O)c3cccc4ccccc34)CC2)nc(NC(C)C)n1 (centres unmarked) [Example 9, N1-[4-([4-(isopropylamino)-6-(pentylamino)-1,3,5-triazin-2-yl]aminomethyl)cyclohexyl]methyl-1-naphthalenesulfonamide] | 6 | – |
| CC(C)Nc1nc(NCCC#N)nc(NCC2CCC(CNS(=O)(=O)c3cccc4ccccc34)CC2)n1 (centres unmarked) [Example 10, N1-[4-([4-[(2-cyanoethyl)amino]-6-(isopropylamino)-1,3,5-triazin-2-yl]aminomethyl)cyclohexyl]methyl-1-naphthalenesulfonamide] | 81 | – |
| CC(C)Nc1nc(NCCO)nc(NCC2CCC(CNS(=O)(=O)c3cccc4ccccc34)CC2)n1 (centres unmarked) [Example 11, N1-[4-([4-[(2-hydroxyethyl)amino]-6-(isopropylamino)-1,3,5-triazin-2-yl]aminomethyl)cyclohexyl]methyl-1-naphthalenesulfonamide] | 35 | – |
| COCCNc1nc(NCC2CCC(CNS(=O)(=O)c3cccc4ccccc34)CC2)nc(NC(C)C)n1 (centres unmarked) [Example 12, N1-(4-[(4-(isopropylamino)-6-[(2-methoxyethyl)amino]-1,3,5-triazin-2-ylamino)methyl]cyclohexylmethyl)-1-naphthalenesulfonamide] | 18 | – |
| COCCCNc1nc(NCC2CCC(CNS(=O)(=O)c3cccc4ccccc34)CC2)nc(NC(C)C)n1 (centres unmarked) [Example 13, N1-(4-[(4-(isopropylamino)-6-[(3-methoxypropyl)amino]-1,3,5-triazin-2-ylamino)methyl]cyclohexylmethyl)-1-naphthalenesulfonamide] | 22 | – |
| CC(C)Nc1nc(NCCN(C)C)nc(NCC2CCC(CNS(=O)(=O)c3cccc4ccccc34)CC2)n1 (centres unmarked) [Example 14, N1-{[4-({[4-{[2-(dimethylamino)ethyl]amino}-6-(isopropylamino)-1,3,5-triazin-2-yl]amino}methyl)cyclohexyl]methyl}-1-naphthalenesulfonamide] | 194 | – |
| CC(C)Nc1nc(NCCCn2ccnc2)nc(NCC2CCC(CNS(=O)(=O)c3cccc4ccccc34)CC2)n1 (centres unmarked) [Example 15, N1-[4-([4-[3-(1H-1-imidazolyl)propyl]amino-6-(isopropylamino)-1,3,5-triazin-2-yl]aminomethyl)cyclohexyl]methyl-1-naphthalenesulfonamide] | 83 | – |
| COc1ccc(CCNc2nc(NCC3CCC(CNS(=O)(=O)c4cccc5ccccc45)CC3)nc(NC(C)C)n2)cc1 (centres unmarked) [Example 16, N1-({4-[({4-(isopropylamino)-6-[(4-methoxyphenethyl)amino]-1,3,5-triazin-2-yl}amino)methyl]cyclohexyl}methyl)-1-naphthalenesulfonamide] | 313 | – |
| CC(C)Nc1nc(NCC2CCC(CNS(=O)(=O)c3cccc4ccccc34)CC2)nc(N(C)C)n1 (centres unmarked) [Example 17, N1-{[4-({[4-(dimethylamino)-6-(isopropylamino)-1,3,5-triazin-2-yl]amino}methyl)cyclohexyl]methyl}-1-naphthalenesulfonamide] | 27 | – |
| CCN(C)c1nc(NCC2CCC(CNS(=O)(=O)c3cccc4ccccc34)CC2)nc(NC(C)C)n1 (centres unmarked) [Example 18, N1-[4-([4-[ethyl(methyl)amino]-6-(isopropylamino)-1,3,5-triazin-2-yl]aminomethyl)cyclohexyl]methyl-1-naphthalenesulfonamide] | 32 | – |
| CCN(CC)c1nc(NCC2CCC(CNS(=O)(=O)c3cccc4ccccc34)CC2)nc(NC(C)C)n1 (centres unmarked) [Example 19, N1-[4-([4-(diethylamino)-6-(isopropylamino)-1,3,5-triazin-2-yl]aminomethyl)cyclohexyl]methyl-1-naphthalenesulfonamide] | 53 | – |
| CC(C)Nc1nc(NCC2CCC(CNS(=O)(=O)c3cccc4ccccc34)CC2)nc(N2CCCC2)n1 (centres unmarked) [Example 20, N1-[4-([4-(isopropylamino)-6-tetrahydro-1H-1-pyrrolyl-1,3,5-triazin-2-yl]aminomethyl)cyclohexyl]methyl-1-naphthalenesulfonamide] | 19 | – |
| COC[C@@H]1CCCN1c1nc(NCC2CCC(CNS(=O)(=O)c3cccc4ccccc34)CC2)nc(NC(C)C)n1 (stereo partly drawn) [Example 21, N1-(4-[(4-(isopropylamino)-6-[(2S)-2-(methoxymethyl)tetrahydro-1H-1-pyrrolyl]-1,3,5-triazin-2-ylamino)methyl]cyclohexylmethyl)-1-naphthalenesulfonamide] | 71 | – |
| CC(C)Nc1nc(NCC2CCC(CNS(=O)(=O)c3cccc4ccccc34)CC2)nc(N2CCCCC2)n1 (centres unmarked) [Example 22, N1-{[4-({[4-(isopropylamino)-6-piperidino-1,3,5-triazin-2-yl]amino}methyl)cyclohexyl]methyl}-1-naphthalenesulfonamide] | 38 | – |
| CC(C)Nc1nc(NCC2CCC(CNS(=O)(=O)c3cccc4ccccc34)CC2)nc(N2CCCCC2C)n1 (centres unmarked) [Example 23, N1-[4-([4-(isopropylamino)-6-(2-methylpiperidino)-1,3,5-triazin-2-yl]aminomethyl)cyclohexyl]methyl-1-naphthalenesulfonamide] | 68 | – |
| CC(C)Nc1nc(NCC2CCC(CNS(=O)(=O)c3cccc4ccccc34)CC2)nc(N2CCOCC2)n1 (centres unmarked) [Example 24, N1-[4-([4-(isopropylamino)-6-morpholino-1,3,5-triazin-2-yl]aminomethyl)cyclohexyl]methyl-1-naphthalenesulfonamide] | 40 | – |
| CC(C)Nc1nc(NCC2CCC(CNS(=O)(=O)c3cccc4ccccc34)CC2)nc(N2C[C@@H](C)O[C@@H](C)C2)n1 (stereo partly drawn) [Example 25, N1-{[4-({[4-[(2R,6S)-2,6-dimethyl-1,4-oxazinan-4-yl]-6-(isopropylamino)-1,3,5-triazin-2-yl]amino}methyl)cyclohexyl]methyl}-1-naphthalenesulfonamide] | 135 | – |
| CC(C)Nc1nc(NCC2CCC(CNS(=O)(=O)c3cccc4ccccc34)CC2)nc(N(C)CCO)n1 (centres unmarked) [Example 26, N1-[4-([4-[(2-hydroxyethyl)(methyl)amino]-6-(isopropylamino)-1,3,5-triazin-2-yl]aminomethyl)cyclohexyl]methyl-1-naphthalenesulfonamide] | 86 | – |
| CC(=O)N1CCN(c2nc(NCC3CCC(CNS(=O)(=O)c4cccc5ccccc45)CC3)nc(NC(C)C)n2)CC1 (centres unmarked) [Example 27, N1-{[4-({[4-(4-acetylpiperazino)-6-(isopropylamino)-1,3,5-triazin-2-yl]amino}methyl)cyclohexyl]methyl}-1-naphthalenesulfonamide] | 31 | – |
| CC(C)Nc1nc(NCC2CCC(CNS(=O)(=O)c3cccc4ccccc34)CC2)nc(N2CCN(C(C)C)CC2)n1 (centres unmarked) [Example 28, N1-{[4-({[4-(isopropylamino)-6-(4-isopropylpiperazino)-1,3,5-triazin-2-yl]amino}methyl)cyclohexyl]methyl}-1-naphthalenesulfonamide] | 22 | – |
| CCNc1nc(NCC)nc(NCC2CCC(CNS(=O)(=O)c3ccc(C(C)(C)C)cc3)CC2)n1 (centres unmarked) [Example 29, N1-[4-([4,6-di(ethylamino)-1,3,5-triazin-2-yl]aminomethyl)cyclohexyl]methyl-4-(tert-butyl)-1-benzenesulfonamide] | – | 50 |
| CCNc1nc(NCC)nc(NCC2CCC(CNS(=O)(=O)c3ccc(F)cc3)CC2)n1 (centres unmarked) [Example 30, N1-[4-([4,6-di(ethylamino)-1,3,5-triazin-2-yl]aminomethyl)cyclohexyl]methyl-4-fluoro-1-benzenesulfonamide] | – | 40 |
